Measurements: PubChem BioAssay (NCI)
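Compound exposure: 48 hours, 5 concentrations, 96-well plates. GI50 is the concentration that inhibits growth by half. TGI is the concentration that stops growth completely.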

Tests used:
Test in all cases: NCI tumour cell line growth inhibition, 48 h
HL-60(TB) leukemia = test system: HL-60(TB) leukemia
HOP-92 NSCLC = test system: HOP-92 NSCLC
NCI-H23 lung = test system: NCI-H23 lung
NCI-H226 lung = test system: NCI-H226 lung
U251 CNS = test system: U251 CNS
OVCAR-5 ovarian = test system: OVCAR-5 ovarian
MDA-MB-231 breast = test system: MDA-MB-231 breast
HCT-15 colon = test system: HCT-15 colon
786-0 renal = test system: 786-0 renal
UACC-62 melanoma = test system: UACC-62 melanoma

| Compound | GI50 (HL-60(TB) leukemia) | TGI (HL-60(TB) leukemia) | GI50 (HOP-92 NSCLC) | TGI (HOP-92 NSCLC) | GI50 (NCI-H23 lung) | TGI (NCI-H23 lung) | GI50 (NCI-H226 lung) | TGI (NCI-H226 lung) | GI50 (U251 CNS) | TGI (U251 CNS) | GI50 (OVCAR-5 ovarian) | TGI (OVCAR-5 ovarian) | GI50 (MDA-MB-231 breast) | TGI (MDA-MB-231 breast) | GI50 (HCT-15 colon) | TGI (HCT-15 colon) | GI50 (786-0 renal) | TGI (786-0 renal) | GI50 (UACC-62 melanoma) | TGI (UACC-62 melanoma) |
| --- | --- | --- | --- | --- | --- | --- | --- | --- | --- | --- | --- | --- | --- | --- | --- | --- | --- | --- | --- | --- |
| O=c1c(F)cn(Cc2ccc(C34CC5CC(CC(C5)C3)C4)c(O)c2)c(=O)n1Cc1ccc(C23CC4CC(CC(C4)C2)C3)c(O)c1 | 8.32 µM | 54.2 µM | 12.4 µM | 28.7 µM | 15.6 µM | 32 µM | 12.9 µM | 26.1 µM | 6.89 µM | 19.5 µM | 13.5 µM | 28.1 µM | 12.3 µM | 24.8 µM | 13.6 µM | 26.5 µM | 11.8 µM | 28.3 µM | 15.9 µM | 29.5 µM |
| CN1CCN(c2ccc(Nc3cc(-c4cccc(-n5ccc6cc(C7CC7)cc(F)c6c5=O)c4CO)cn(C)c3=O)nc2)CC1 | 2.21 µM | 4.4 µM | 1.89 µM | 8.42 µM | 13.6 µM | 37.3 µM | 10.2 µM | 30.1 µM | 3.47 µM | 14 µM | 2.82 µM | 9.75 µM | 2.26 µM | 6.17 µM | 5.11 µM | 26.1 µM | 2.01 µM | 4.44 µM | 2.4 µM | 6.63 µM |
| CN(C)CC[C@H](CSc1ccccc1)Nc1ccc(S(=O)(=O)NC(=O)c2ccc(N3CCN(Cc4ccccc4-c4ccc(Cl)cc4)CC3)cc2)cc1[N+](=O)[O-] | 0.35 µM | 4.56 µM | 0.186 µM | 0.833 µM | 9.07 µM | > 100 µM | 4.59 µM | 17.4 µM | 3.9 µM | 17.4 µM | 5.07 µM | 41.1 µM | 1.55 µM | 3.5 µM | 5.09 µM | > 100 µM | 3.6 µM | 15.1 µM | 3.51 µM | 20 µM |
| NS(=O)(=O)c1ccc(N=Nc2c(O)c(C(=O)O)cc3ccccc23)cc1 |  | > 100 µM |  | > 100 µM |  | > 100 µM |  | > 100 µM |  | > 100 µM |  | > 100 µM |  | > 100 µM |  | > 100 µM |  | > 100 µM |  | > 100 µM |
| Cc1nnc(Nc2ccc(NC(=O)Nc3ccc(Cl)cc3)cc2)c2ccccc12 | 2.03 µM | 4.19 µM | 2.56 µM | 6.06 µM | 2.38 µM | 6.31 µM | 3.61 µM | 15.9 µM | 1.98 µM | 3.75 µM | 2.1 µM | 4.99 µM | 2.38 µM | 5.94 µM | 1.91 µM | 4.53 µM | 1.71 µM | 3.34 µM | 1.75 µM | 3.59 µM |
| O=C(Cc1ccc(F)c(Cl)c1)Nc1cc(C2(C(F)(F)F)CC2)nn1CC1CCCCC1 | 3.27 µM | 7.79 µM | 2.69 µM | 10.7 µM | 3.52 µM | 12 µM | 4.32 µM | > 15 µM | 5.13 µM | > 15 µM | 4.44 µM | > 15 µM | 2.82 µM | 6.68 µM | 3.87 µM | > 15 µM | 4.34 µM | > 15 µM | 3.37 µM | 11.5 µM |
| CCn1c(O)c(/C=N/NC(=O)C(C)c2ccc(CC(C)C)cc2)sc1=S (stereo not given) | 0.312 µM | 1.52 µM | 0.806 µM | 9.65 µM | 0.673 µM | > 41.1 µM | 0.797 µM | > 21.4 µM | 0.399 µM | > 38 µM | 0.619 µM | > 44.7 µM | 0.515 µM | 7.59 µM | 0.379 µM | > 35.4 µM | 0.606 µM | > 40.9 µM | 0.435 µM | 15 µM |
| CCC[CH2][Sn]([CH2]CCC)([O]C(=O)c1ccc(OC)c(OC)c1OC)[O][Sn]([CH2]CCC)([CH2]CCC)[O]C(=O)c1ccc(OC)c(OC)c1OC | 0.112 µM | 0.554 µM | 0.159 µM | 0.554 µM | 0.142 µM | 0.535 µM | 0.33 µM | 0.89 µM | 0.274 µM | 1.1 µM | 1.52 µM | 2.85 µM | 0.586 µM | 1.89 µM | 0.175 µM | 0.526 µM | 0.176 µM | 0.456 µM | 0.164 µM | 0.504 µM |
| Cc1cc(N[C@@H]2CCC[C@H](Nc3ccnc4cc(Cl)ccc34)C2)nc(N2CCCCCC2)n1 | 1.7 µM | 3.47 µM | 1.62 µM | 3.36 µM | 2.03 µM | 5.43 µM | 2.42 µM | 6.06 µM | 1.73 µM | 3.41 µM | 2.06 µM | 6.26 µM | 1.63 µM | 3.43 µM | 1.1 µM | 2.62 µM | 1.47 µM | 2.9 µM | 1.81 µM | 3.34 µM |
